Assay results published in US11566007B2, “Ras inhibitors” (Revolution Medicines, Inc., priority 2019, dated 2023).

What was measured:
[1] = test system: NCI-H358 cells (K-Ras G12C); experiment: Potency assay: pERK in NCI-H358 cells; type: cell-based, human; conditions: Homo sapiens, NCI-H358; H358 KRAS G12C; read-out: pERK EC50
In short: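 Inhibition of cellular pERK after a 4 h treatment, detected by AlphaLISA or In-Cell Western. IC50 from a four-parameter concentration-response fit.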

K-Ras G12C = K-Ras G12C (Homo sapiens (Human), UniProt P01116+P62937, G12C); experiment: Ras-Raf (BRAF RBD) disruption / FRET / MOA assay, KRAS G12C; type: biochemical; conditions: KRAS G12C; Ras-Raf disruption/FRET/MOA assay; read-out: IC50* KRAS G12C FRET data
Sequence of K-Ras G12C (P01116-2 other isoform, or with tags, fused parts or gaps G12C): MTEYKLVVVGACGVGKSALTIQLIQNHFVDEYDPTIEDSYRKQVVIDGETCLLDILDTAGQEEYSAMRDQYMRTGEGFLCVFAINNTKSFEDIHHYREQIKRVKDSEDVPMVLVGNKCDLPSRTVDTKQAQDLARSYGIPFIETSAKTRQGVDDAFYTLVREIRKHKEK
Sequence of K-Ras G12C (P62937 whole entry): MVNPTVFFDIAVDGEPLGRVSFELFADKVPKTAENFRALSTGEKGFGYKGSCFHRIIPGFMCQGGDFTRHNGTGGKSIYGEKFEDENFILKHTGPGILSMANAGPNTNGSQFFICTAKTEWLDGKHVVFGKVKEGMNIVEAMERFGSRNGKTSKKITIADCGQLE
In short: (§1)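 TR-FRET read-out: a drop in ratio relative to DMSO wells marks disruption of the Ras:RAF complex, reported as IC50. Compounds (3-fold series, 10 points, top 30 μM final) incubated 3 h at 25° C before Eu-anti-His 10 nM and APC-anti-GST 50 nM, 1.5 h more.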

KRAS G12S = KRAS G12S (Homo sapiens (Human), UniProt P01116+P62937, G12S); experiment: Ras-Raf (BRAF RBD) disruption / FRET / MOA assay, KRAS G12S; type: biochemical; conditions: Ras-Raf disruption/FRET/MOA assay; class symbols; read-out: KRAS G12S FRET data IC50
Sequence of KRAS G12S (P01116-2 other isoform, or with tags, fused parts or gaps G12S): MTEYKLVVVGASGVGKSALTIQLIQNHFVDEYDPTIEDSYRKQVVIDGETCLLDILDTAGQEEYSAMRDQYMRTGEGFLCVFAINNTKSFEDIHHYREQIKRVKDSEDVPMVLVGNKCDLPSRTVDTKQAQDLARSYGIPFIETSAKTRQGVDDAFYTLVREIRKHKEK
Sequence of KRAS G12S (P62937 whole entry): as the sequence (P62937 whole entry) above
In short: as §1

KRAS WT = KRAS WT (Homo sapiens (Human), UniProt P01116+P62937); experiment: Ras-Raf (BRAF RBD) disruption / FRET / MOA assay, KRAS WT; type: biochemical; conditions: read-out: IC50* KRAS WT FRET data
Sequence of KRAS WT (P01116-2 other isoform, or with tags, fused parts or gaps): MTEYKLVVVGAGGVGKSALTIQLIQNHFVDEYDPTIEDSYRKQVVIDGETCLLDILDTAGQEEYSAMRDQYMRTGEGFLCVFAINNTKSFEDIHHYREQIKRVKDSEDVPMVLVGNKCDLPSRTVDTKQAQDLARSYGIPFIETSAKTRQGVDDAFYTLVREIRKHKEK
Sequence of KRAS WT (P62937 whole entry): as the sequence (P62937 whole entry) above
In short: as §1

KRAS G13D = KRAS G13D (Homo sapiens (Human), UniProt P01116+P62937, G13D); experiment: Ras-Raf (BRAF RBD) disruption / FRET / MOA assay, KRAS G13D; type: biochemical; conditions: read-out: IC50* KRAS G13D FRET data
Sequence of KRAS G13D (P01116-2 other isoform, or with tags, fused parts or gaps G13D): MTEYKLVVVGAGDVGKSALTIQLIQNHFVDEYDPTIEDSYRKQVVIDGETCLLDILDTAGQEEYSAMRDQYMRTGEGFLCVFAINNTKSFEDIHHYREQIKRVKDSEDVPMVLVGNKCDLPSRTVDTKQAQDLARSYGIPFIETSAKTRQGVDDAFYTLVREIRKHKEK
Sequence of KRAS G13D (P62937 whole entry): as the sequence (P62937 whole entry) above
In short: as §1

KRAS Q61H = KRAS Q61H (Homo sapiens (Human), UniProt P01116+P62937, Q61H); experiment: Ras-Raf (BRAF RBD) disruption / FRET / MOA assay, KRAS Q61H; type: biochemical; conditions: Ras-Raf disruption/FRET/MOA assay; class symbols; read-out: KRAS Q61H FRET data IC50
Sequence of KRAS Q61H (P01116-2 other isoform, or with tags, fused parts or gaps Q61H): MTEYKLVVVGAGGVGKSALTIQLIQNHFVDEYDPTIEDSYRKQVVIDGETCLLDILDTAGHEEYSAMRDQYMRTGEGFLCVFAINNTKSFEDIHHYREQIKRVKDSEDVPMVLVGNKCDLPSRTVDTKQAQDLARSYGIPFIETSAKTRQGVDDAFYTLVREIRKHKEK
Sequence of KRAS Q61H (P62937 whole entry): as the sequence (P62937 whole entry) above
In short: (§2)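 Compounds were tested as a 10-point 3-fold dilution series from 30 μM final for their ability to drive ternary complex formation between nucleotide-loaded Ras and cyclophilin A, displacing the BRAF RBD. After 3 h at 25° C., anti-His Eu-W1024 (10 nM) and anti-GST allophycocyanin (50 nM) were added for 1.5 h. A TR-FRET ratio decrease versus DMSO gave IC50.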

NRAS Q61K = NRAS Q61K (Homo sapiens (Human), UniProt P01111+P62937, Q61K); experiment: Ras-Raf (BRAF RBD) disruption / FRET / MOA assay, NRAS Q61K; type: biochemical; conditions: NRAS Q61K; Ras-Raf disruption/FRET/MOA assay; read-out: IC50* NRAS Q61K FRET data
Sequence of NRAS Q61K (P01111 whole entry Q61K): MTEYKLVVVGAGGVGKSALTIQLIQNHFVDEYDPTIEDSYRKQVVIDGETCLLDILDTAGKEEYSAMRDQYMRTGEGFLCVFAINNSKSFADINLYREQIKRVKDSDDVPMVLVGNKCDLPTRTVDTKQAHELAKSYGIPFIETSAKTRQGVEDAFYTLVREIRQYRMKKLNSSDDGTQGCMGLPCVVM
Sequence of NRAS Q61K (P62937 whole entry): as the sequence (P62937 whole entry) above
In short: as §2

Structure (SMILES) | EC50 [1] [µM] | IC50 (K-Ras G12C) [µM] | IC50 (KRAS G12S) [µM] | IC50 (KRAS WT) [µM] | IC50 (KRAS G13D) [µM] | IC50 (KRAS Q61H) [µM] | IC50 (NRAS Q61K) [µM]
C=CC(=O)N(C)C[C@H]1CCN1C(=O)N(C)[C@H](C(=O)N[C@H]1Cc2nc(cs2)-c2ccc3c(c2)c(c(-c2cccnc2[C@H](C)OC)n3CC)CC(C)(C)COC(=O)[C@@H]2CCCN(N2)C1=O)C(C)C (atropisomer, axis not shown) [Example A369] | < 5 | 0.1 to 1 | 0.1 to 1 | 0.1 to 1 | 1 to 10 | 0.1 to 1 | 0.01 to 0.1
C=CC(=O)N1CC[C@H](C(=O)N(C)[C@H](C(=O)N[C@H]2Cc3cccc(c3)-c3ccc4c(c3)c(c(-c3cccnc3[C@H](C)OC)n4CC)CC(C)(C)COC(=O)[C@@H]3CCCN(N3)C2=O)C(C)C)[C@H]1C (atropisomer, axis not shown) [Example A373] | < 5 | 0.1 to 1 | 1 to 10 | 1 to 10 | 1 to 10 | 0.1 to 1 | 1 to 10
CO[C@@H](C)c1ncccc1-c1c2c3cc(ccc3n1CC(F)(F)F)-c1cc(cc(C(F)F)c1)C[C@H](NC(=O)[C@@H](COC1CN(C(=O)C#CC(C)(C)N(C)C)C1)C(C)C)C(=O)N1CCC[C@H](N1)C(=O)OCC(C)(C)C2 (atropisomer, axis not shown) [Example A374] | < 5 | 0.1 to 1 | > 10 | > 10 | > 10 | > 10 | > 10
CCn1c(-c2cccnc2[C@H](C)OC)c2c3cc(ccc31)-c1csc(n1)C[C@H](NC(=O)CCO[C@H]1CCN(C(=O)C#CC(C)(C)N3CCC3)C1)C(=O)N1CCC[C@H](N1)C(=O)OCC(C)(C)C2 (atropisomer, axis not shown) [Example A381] | < 5 | < 0.01 | 1 to 10 | 1 to 10 | 1 to 10 | 1 to 10 | 1 to 10
C=CC(=O)N(C)C[C@@H]1CCN1C(=O)N(C)[C@H](C(=O)N[C@H]1Cc2nc(cs2)-c2ccc3c(c2)c(c(-c2cccnc2[C@H](C)OC)n3CC)CC(C)(C)COC(=O)[C@@H]2CCCN(N2)C1=O)C(C)C (atropisomer, axis not shown) [Example A390] | < 5 | 0.1 to 1 | 1 to 10 | 1 to 10 | 1 to 10 | 0.1 to 1 | 0.1 to 1
C=CC(=O)N1CC[C@H](C(=O)N(C)[C@H](C(=O)N[C@H]2Cc3cccc(c3)-c3ccc4c(c3)c(c(-c3cc(C5CN(C)C5)cnc3[C@H](C)OC)n4CC)CC(C)(C)COC(=O)[C@@H]3CCCN(N3)C2=O)C(C)C)C1 (atropisomer, axis not shown) [Example A392] | < 5 | 0.1 to 1 | 1 to 10 | 1 to 10 | > 10 | 1 to 10 | > 10
C=CC(=O)N1CC[C@H](C(=O)N(C)[C@H](C(=O)N[C@H]2Cc3cccc(n3)-c3ccc4c(c3)c(c(-c3cccnc3[C@H](C)OC)n4CC)CC(C)(C)COC(=O)[C@@H]3CCCN(N3)C2=O)C(C)C)C1 (atropisomer, axis not shown) [Example A442] | < 5 | 0.1 to 1 | 1 to 10 | > 10 | > 10 | 1 to 10 | 1 to 10
C=CC(=O)N1CC[C@H](C(=O)N(C)[C@H](C(=O)N[C@H]2Cc3cccc(c3)-c3ccc4c(c3)c(c(-c3cccnc3[C@H](C)OC)n4CC3COC3)CC(C)(C)COC(=O)[C@@H]3CCCN(N3)C2=O)C(C)C)C1 (atropisomer, axis not shown) [Example A481] | < 5 | 0.1 to 1 | 1 to 10 | 1 to 10 | > 10 | 1 to 10 | 1 to 10
C=CC(=O)N1CC[C@H](C(=O)N2CCCCC[C@H]2C(=O)N[C@H]2Cc3nc(cs3)-c3ccc4c(c3)c(c(-c3cccnc3[C@H](C)OC)n4CC)CC(C)(C)COC(=O)[C@@H]3CCCN(N3)C2=O)C1 (atropisomer, axis not shown) [Example A495] | < 5 | 0.1 to 1 | 1 to 10 | 1 to 10 | > 10 | 1 to 10 | 1 to 10
